Results as given in patent US8822674B2, “Crystal form of 4-isopropylphenyl glucitol compound and process for production thereof” (Taisho Pharmaceutical Co., Ltd, priority 2010, dated 2014).

Assays:
[1] = Renal concentrations until one week after single oral administration; assay type: in vivo; details: Sprague-Dawley (SD/IGS), rat, 1 mg/kg po, male Sprague-Dawley rats, kidney
Method: SD/IGS rats at 7 weeks of age (male, non-fasting, Charles River Laboratories Japan Inc.) were orally administered with compound 4, 10 or 33 (1 mg/kg each) or compound 11 (0.3 mg/kg) prepared in a 0.5% aqueous CMC solution. At 24, 72 and 168 hours after drug administration, the rats were exsanguinated via the postcaval vein under ether anesthesia, and their kidneys were excised after they were confirmed to be euthanized. After the tissue surface was washed with physiological saline, each tissue was measured for its weight and homogenized in 4 volumes of purified water under ice cooling. To each homogenate, an acetonitrile/methanol solution containing an internal standard substance was added to remove proteins, and the supernatant was then subjected to LC-MS/MS (Applied Biosystems API3000). Drug-derived ions generated by electrospray ionization in positive ion mode were detected by selective reaction monitoring. The peak area of the resulting extracted ion chromatogram was analyzed by the internal standard method to calculate the drug concentration in the homogenate.
As the internal standard material for Compounds 10 and 33, (1S)-1,5-anhydro-1-[5-(4-ethoxybenzyl)-2-methoxy-4-methylphenyl]-1-thio-D-glucitol,ethyl-D5 was used. As the internal standard materials for Compounds 4 and 11, Compound II and deuterium-labeled Compound II (trishydroxymethyl-D6; —C(CD2OH)3), respectively, were used.

[2] = tested on: streptozotocin (STZ)-induced diabetic rats; experiment: Oral glucose tolerance test in streptozotocin diabetic model rats; assay type: in vivo, rat
Method: SD/IGS rats at 7 weeks of age (male, Charles River Laboratories Japan Inc.) were fasted for about 16 hours and then injected with 50 mg/kg streptozotocin (STZ) via the caudal vein under ether anesthesia to prepare diabetic model rats. Similarly, another group of SD/IGS rats at 7 weeks of age was injected with 1.25 mmol/L citric acid in physiological saline (1 mL/kg) via the tail vein under ether anesthesia to prepare normal control rats. At one week after injection of STZ or 1.25 mmol/L citric acid in physiological saline, the rats (8 weeks old) were provided for an oral glucose tolerance test. […]
Blood was collected from the caudal veins of the rats under ether anesthesia with the use of a heparin-coated blood collecting tube and centrifuged, whereafter blood plasma was separated. Plasma glucose concentrations were quantified by measurement with a Glucose CII-Test Wako (Wako Pure Chemical Industries, Ltd., Japan). To determine the intensity of hypoglycemic effect, the blood glucose level before drug administration was subtracted from each blood glucose level measured until one hour after oral administration in each drug group, and the resulting values were analyzed by the trapezoidal method to calculate an increment in the area under the curve for glucose (ΔAUC), which was expressed as a decrease relative to ΔAUC of the control group.

human SGLT1 = target: T1, human SGLT1 (Homo sapiens, UniProt P13866); experiment: Inhibition test for sodium-dependent sugar uptake in CHO-K1 cells stably expressing human SGLT1; assay type: cell-based; details: summary of Table 1
T1 construct: expressed in transfected cells; host or cells: CHO-K1
T1 sequence (P13866 1-664): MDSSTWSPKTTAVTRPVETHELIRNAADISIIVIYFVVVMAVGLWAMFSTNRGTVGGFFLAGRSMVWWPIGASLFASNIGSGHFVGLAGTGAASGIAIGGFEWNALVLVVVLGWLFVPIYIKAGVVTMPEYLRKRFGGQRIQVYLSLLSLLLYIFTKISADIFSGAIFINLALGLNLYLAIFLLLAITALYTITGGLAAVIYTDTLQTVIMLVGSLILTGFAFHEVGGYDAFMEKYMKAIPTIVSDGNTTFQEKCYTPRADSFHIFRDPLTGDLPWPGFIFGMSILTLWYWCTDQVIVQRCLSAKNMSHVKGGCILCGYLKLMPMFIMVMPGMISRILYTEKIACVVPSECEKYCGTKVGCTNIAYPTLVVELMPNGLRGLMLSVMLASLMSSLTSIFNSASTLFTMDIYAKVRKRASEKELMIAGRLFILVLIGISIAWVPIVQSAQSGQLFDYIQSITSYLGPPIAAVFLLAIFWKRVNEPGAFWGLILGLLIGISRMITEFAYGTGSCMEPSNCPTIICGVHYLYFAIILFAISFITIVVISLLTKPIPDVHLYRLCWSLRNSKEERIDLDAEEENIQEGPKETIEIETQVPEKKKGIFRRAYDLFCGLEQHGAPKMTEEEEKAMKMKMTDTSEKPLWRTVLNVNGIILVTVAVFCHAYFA
Method: A plasmid vector expressing human SGLT1 protein was transfected into CHO-K1 cells using lipofectamine 2000 (Invitrogen). The cells were cultured in the presence of 500 μg/mL geneticin to select resistant strains, followed by screening in the system shown below using sugar uptake capacity as an indicator to obtain SGLT1-expressing cells.
(§1) The stably expressing cells prepared above were used in the following test.
Pretreatment buffer (140 mM choline chloride, 2 mM KCl, 1 mM CaCl2, 1 mM MgCl2, 10 mM HEPES/5 mM Tris, pH 7.4) was added in a volume of 200 μL to the cells stably expressing SGLT1 or 2 mL for Method A and 200 μL for Method B to the cells stably expressing SGLT2, followed by incubation for 20 minutes. The pretreatment buffer was removed and replaced by uptake buffer containing a test compound (1 mM methyl α-D-glucopyranoside (containing [^14C]methyl α-D-glucopyranoside), 140 mM NaCl, 2 mM KCl, 1 mM CaCl2, 1 mM MgCl2, 10 mM HEPES/5 mM Tris, pH 7.4) in a volume of 75 μL for SGLT1 and SGLT2 in Method B or 200 μL for SGLT2 in Method A. Uptake reaction was performed at 37° C. for 30 minutes (SGLT1) or 60 minutes (SGLT2). […] A liquid scintillator (Perkin Elmer) was added and mixed well with each sample, followed by measurement of radioactivity using a β-ray analyzer. […]

[3] = Renal concentration after repeated oral administration for 3 days; assay type: in vivo, rat; details: 3 mg/kg for 3 consecutive days, subsequent day 2
Method: At 48 hours after the final drug administration, the rats were exsanguinated via the postcaval vein under isoflurane anesthesia, and their kidneys were excised after they were confirmed to be euthanized. After the tissue surface was washed with physiological saline, each tissue was measured for its weight and homogenized in 4 volumes of purified water under ice cooling. The drug concentration in each homogenate was determined in the same manner as shown in Test Example 3(1) by LC-MS/MS using compound II as an internal standard substance.

[4] = target: T2, human SGLT2 protein modified to have LeuGluSerArgGlyProVal added to the carboxy-terminal final residue (Homo sapiens, UniProt P31639); experiment: Inhibition test for sodium-dependent sugar uptake in CHO-K1 cells stably expressing human SGLT2, Method A; assay type: cell-based; details: summary of Table 1; method not specified
T2 construct: expressed in transfected cells; host or cells: CHO-K1
T2 sequence (P31639 with tags, fused parts or gaps): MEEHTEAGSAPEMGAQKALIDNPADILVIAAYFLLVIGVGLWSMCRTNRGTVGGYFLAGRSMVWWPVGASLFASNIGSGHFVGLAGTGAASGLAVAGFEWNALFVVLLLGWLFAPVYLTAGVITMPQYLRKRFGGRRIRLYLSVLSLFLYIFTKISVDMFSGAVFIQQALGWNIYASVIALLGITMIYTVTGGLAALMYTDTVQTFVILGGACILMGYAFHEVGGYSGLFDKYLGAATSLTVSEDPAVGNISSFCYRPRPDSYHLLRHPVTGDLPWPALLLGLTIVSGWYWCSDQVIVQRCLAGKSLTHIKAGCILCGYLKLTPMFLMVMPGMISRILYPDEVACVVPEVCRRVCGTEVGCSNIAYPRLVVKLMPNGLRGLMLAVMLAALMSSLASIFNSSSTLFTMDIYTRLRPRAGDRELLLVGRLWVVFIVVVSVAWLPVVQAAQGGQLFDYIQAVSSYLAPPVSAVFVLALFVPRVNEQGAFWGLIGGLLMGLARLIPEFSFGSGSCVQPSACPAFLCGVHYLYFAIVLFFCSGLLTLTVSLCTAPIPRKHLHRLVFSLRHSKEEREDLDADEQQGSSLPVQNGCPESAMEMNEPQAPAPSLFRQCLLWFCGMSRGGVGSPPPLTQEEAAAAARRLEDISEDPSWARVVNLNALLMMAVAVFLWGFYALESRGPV
Method: Method A (described in WO2007/136116): A plasmid vector expressing human SGLT2 protein modified to have LeuGluSerArgGlyProVal added to the carboxy-terminal final residue was transfected into CHO-K1 cells using lipofectamine 2000 (Invitrogen). The cells were cultured in the presence of 500 μg/mL hygromycin B to select resistant strains, followed by screening in the system shown below using sugar uptake capacity as an indicator to obtain SGLT2-expressing cells.
as §1
Pretreatment buffer (140 mM choline chloride, 2 mM KCl, 1 mM CaCl2, 1 mM MgCl2, 10 mM HEPES/5 mM Tris, pH 7.4) was added in a volume of 200 μL to the cells stably expressing SGLT1 or 2 mL for Method A and 200 μL for Method B to the cells stably expressing SGLT2, followed by incubation for 20 minutes. […] A liquid scintillator (Perkin Elmer) was added and mixed well with each sample, followed by measurement of radioactivity using a β-ray analyzer. […]

Structure (SMILES)	concentration at 1 day ([1]; 1 day, read-out: Concentration of compounds in kidney after single oral administration, After 1 day)	concentration at 3 days ([1]; 3 days, read-out: Concentration of compounds in kidney after single oral administration, After 3 days)	concentration at 7 days ([1]; 7 days, read-out: Concentration of compounds in kidney after single oral administration, After 7 days)	STZ rats OGTT % inhibition ΔAUC0−1 h (mg/dl) @1 mg/kg/po ([2]; STZ-induced diabetic rats, oral dose 1 mg/kg, glucose 2 g/kg, versus vehicle control)	hypoglycemic action in the glucose tolerance test (in words) ([2]; oral administration of 1 mg/kg)	SGLT1 inhibiting activity (in words) (human SGLT1)	remaining in the kidney after repeated administration (in words) [3]	SGLT2 inhibiting activity (in words) [4]
Cc1cc(O)c([C@@H]2O[C@H](CO)[C@@H](O)[C@H](O)[C@H]2O)cc1Cc1ccc(CCCC(=O)NC(C)(C)C(N)=O)cc1 [compound 4]	68.4 ± 7.49 ng/g	85.5 ± 23.1 ng/g	76.3 ± 15.5 ng/g					
COc1cc(C(C)C)c(Cc2ccc(/C=C/C(C)(C)C(=O)NC(C)(C)C(=O)NCCN(C)C)cc2)cc1[C@@H]1O[C@H](CO)[C@@H](O)[C@H](O)[C@H]1O [compound (A), (1S)-1,5-anhydro-1-[5-(4-{(1E)-4-[(1-{[2-(dimethylamino)ethyl]amino}-2-methyl-1-oxopropan-2-yl)amino]-3,3-dimethyl-4-oxobut-1-en-1-yl}benzyl)-2-methoxy-4-(propan-2-yl)phenyl]-D-glucitol]				65%	potent	strong	did not remain in the kidney	some, although weak
